Experimental data from publication PMC7601585, “Aedes albopictus D7 Salivary Protein Prevents Host Hemostasis and Inflammation” (Biomolecules, 2020).

B1: AeD7L1: D7 long form salivary protein from Ae. aegypti (GenBank: AAA29347) (protein, UniProt P18153 18-321, looked up)
Long form salivary protein …: STGPFDPEEMLFTFTRCMEDNLEDGPNRLPMLAKWKEWINEPVDSPATQCFGKCVLVRTGLYDPVAQKFDASVIQEQFKAYPSLGEKSKVEAYANAVQQLPSTNNDCAAVFKAYDPVHKAHKDTSKNLFHGNKELTKGLYEKLGKDIRQKKQSYFEFCENKYYPAGSDKRQQLCKIRQYTVLDDALFKEHTDCVMKGIRYITKNNELDAEEVKRDFMQVNKDTKALEKVLNDCKSKEPSNAGEKSWHYYKCLVESSVKDDFKEAFDYREVRSQIYAFNLPKKQVYSKPAVQSQVMEIDGKQCPQ

What was measured:
[1] = target: T1, AlboD7L1 (Aedes albopictus, UniProt Q5MIW7); experiment: biochemical; format: binding; conditions: for ΔH (kcal/mol) ± SE / −TΔS: ITC, 30 °C, TBS pH 7.4, single-site model, N fixed = 1
T1 construct: made in house; host or cells: Escherichia coli BL21 (DE3) pLysS
T1 sequence (Q5MIW7 22-332 limits assumed): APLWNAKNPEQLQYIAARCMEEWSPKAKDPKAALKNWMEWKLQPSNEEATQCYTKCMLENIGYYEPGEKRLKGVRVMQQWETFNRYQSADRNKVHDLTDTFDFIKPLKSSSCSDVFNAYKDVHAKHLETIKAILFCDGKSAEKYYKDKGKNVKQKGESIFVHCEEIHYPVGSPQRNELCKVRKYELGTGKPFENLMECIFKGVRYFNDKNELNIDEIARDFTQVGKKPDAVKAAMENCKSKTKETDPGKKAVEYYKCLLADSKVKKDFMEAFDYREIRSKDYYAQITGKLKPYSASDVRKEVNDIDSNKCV
Description: To identify the potential biological function of AlboD7L1, isothermal titration calorimetry (ITC) was used to determine its binding affinities to putative ligands that are known to affect inflammation and hemostasis (biogenic amines, leukotrienes, and thromboxane A2). Measurements were performed on a MicroCal VP-ITC (Malvern Panalytical, Westborough, MA, USA) at 30 °C and stir speed at 286 rpm. […] Protein and ligands were diluted in Tris-buffered saline (TBS-20 mM Tris-HCl, 150 mM NaCl, pH 7.4) and degassed under vacuum for 5 min using a MicroCal ThermoVac (Malvern Panalytical, Westborough, MA, USA). The AlboD7L1 concentrations were 2 μM, 3 μM, or 5 μM, and ligand concentrations were prepared at 10-fold the protein concentration (20 μM, 30 μM, or 50 μM), depending on protein/ligand combination for optimal ITC performance. For eicosanoid ligands, the solvent was first evaporated under a stream of nitrogen gas prior to dissolving in TBS, vortexed, and sonicated for 10 min (Branson 1510, Branson Ultrasonics, Danbury, CT, USA) to ensure dissolution. The protein sample volume in the cell was 1.4 mL, and ligand injections were delivered in 10 μL volume in a total of 31 injections. The data was analyzed using the MicroCal PEAQ-ITC analysis software v 1.21 (Malvern Panalytical, Westborough, MA, USA) by fitting to a single-site binding model to obtain the stoichiometry (N), the dissociation constant (KD), the enthalpy of binding (ΔH), and the entropy change (ΔS°) at a constant temperature (T).

[2] = test system: AeD7L1; set-up: method as in PMID 19234127; conditions: cited from earlier work
[3] = test system: platelet rich plasma; experiment: Ex vivo platelet aggregation (light transmission aggregometer); format: cell-based, human; conditions: lower U-46619 doses (Supplementary Figure S3A)
Description: Platelet rich plasma was obtained from normal healthy donors on the NCI IRB approved NIH protocol 99-CC-0168, “Collection and Distribution of Blood Components from Healthy Donors for In Vitro Research Use.” Blood donors provided written informed consent, and platelets were de-identified prior to distribution. Platelet aggregation was measured using a light transmission aggregometer (Chrono-Log Corporation, Havertown, PA, USA). Briefly, 300 μL of platelet rich plasma, diluted to approximately 2.5 × 10^5 platelets/μL in HEPES-Tyrode’s buffer (137 mM NaCl, […], 12 mM NaHCO3, 0.34 mM sodium phosphate monobasic, 1 mM MgCl2, 2.9 mM KCl, 5 mM HEPES, 5 mM glucose, 1% BSA, 0.03 mM EDTA, pH 7.4) were pre-stirred in the aggregometer for 1 min to monitor pre-aggregation effects. Recombinant AlboD7L1 or Tyrode’s buffer as negative control were added to the platelet rich plasma before adding the agonists. Aggregation agonists used in our studies included serotonin, epinephrine, collagen type I fibrils from equine tendons, U-46619, ADP or combination of agonists. Their concentrations are specified in the figure or figure captions. Technical duplicates were performed. For experiments shown in Figure 6 a Chrono-Log aggregometer model 500-CA was used while experiments shown in Supplementary Figure S3 were done in a Chrono-Log model 700.

Row | Molecule | Kd [1] | ΔH (kcal/mol) ± SE [1] | −TΔS [1] | binding to AeD7L1 [2] | platelet aggregation initiated with lower doses of U-46619 [3]
1 | CCCCC/C=C\C\C=C/C=C/C=C/[C@@H](SC[C@H](N)C(=O)NCC(=O)O)[C@@H](O)CCCC(=O)O [LTD4] | 332 ± 48.3 nM | -5.00 ± 0.139 kcal/mol | -3.98 kcal/mol | – | –
2 | CCCCCC(O)C=CC1C2CC(CO2)C1CC=CCCCC(=O)O (centres unmarked) [U-46619] | 946 ± 269 nM | -8.54 ± 0.785 kcal/mol | 0.189 kcal/mol | does not bind | –
3 | NCCc1ccc(O)c(O)c1 [Dopamine, dopamine] | 11 ± 2.19 nM | -12.3 ± 0.197 kcal/mol | 1.23 kcal/mol | – | –
4 | NCCc1c[nH]cn1 [Histamine, histamine] | 278 ± 66.2 nM | -7.47 ± 0.378 kcal/mol | -1.63 kcal/mol | – | –
5 | CCCCC/C=C\C\C=C/C=C/C=C/[C@@H](SC[C@H](N)C(=O)O)[C@@H](O)CCCC(=O)O [LTE4, leukotriene E4] | 567 ± 115 nM | -3.98 ± 0.180 kcal/mol | -4.69 kcal/mol | – | –
6 | CCCCC/C=C\C\C=C/C=C/C=C/[C@@H](SC[C@H](NC(=O)CC[C@H](N)C(=O)O)C(=O)NCC(=O)O)[C@@H](O)CCCC(=O)O [LTC4] | 67.7 ± 22.4 nM | -7.90 ± 0.350 kcal/mol | -2.05 kcal/mol | – | –
7 | NCCc1c[nH]c2ccccc12 [Tryptamine, tryptamine] | 570 ± 97.7 nM | -6.43 ± 0.223 kcal/mol | -2.23 kcal/mol | – | –
8 | CNC[C@H](O)c1ccc(O)c(O)c1 [Epinephrine, epinephrine] | 4110 ± 3330 nM | -6.83 ± 0.809 kcal/mol | -0.637 kcal/mol | – | –
9 | NCCc1c[nH]c2ccc(O)cc12 [Serotonin, serotonin] | 4.51 ± 2.66 nM | -13.7 ± 0.445 kcal/mol | 2.13 kcal/mol | – | –
10 | CCCCC/C=C\C[C@@H](O)/C=C/C=C/C=C\[C@@H](O)CCCC(=O)O [LTB4, leukotriene B4] | 342 ± 65 nM | -2.74 ± 0.085 kcal/mol | -6.23 kcal/mol | – | –
11 | NC[C@H](O)c1ccc(O)c(O)c1 [Norepinephrine, norepinephrine] | 3.67 ± 0.994 nM | -11.6 ± 0.186 kcal/mol | -0.116 kcal/mol | – | –
12 | B1 | – | – | – | – | inhibits platelet aggregation
